From article PMC9703800 (BMC Chemistry, 2022)
“Also recorded” adds a separate entry of the source.

Columns and labels:
[1] = target: T1, Acetylcholinesterase (AChE) (Electrophorus electricus, UniProt O42275); assay: biochemical; assay type: biochemical; details: for IC50: isolated compounds, mean ± SD, three experiments, read-out: AChEI (μM), IC50; for inhibition at 40 µg/mL: read-out: AChE inhibition (%)
T1 construct: Type V-S, lyophilized powder, from electric eel; purchased Sigma-Aldrich; host or cells: electric eel (natural source)

[2] = target: butyrylcholinesterase (BChE) (Equus caballus, UniProt P81908); assay: biochemical; assay type: biochemical; details: for IC50: isolated compounds, mean ± SD, three experiments, read-out: BChEI (μM), IC50; for inhibition at 40 µg/mL: read-out: BChE inhibition (%)
AChE = target: T2, AChE (Electrophorus electricus, UniProt O42275); assay: Kinetic study of AChE inhibition (Lineweaver-Burk); assay type: biochemical
T2 construct: Type V-S, lyophilized powder, from electric eel; purchased Sigma-Aldrich; host or cells: electric eel (natural source)
Description: (§1) Kinetic studies of compound 2 were performed for the inhibition of ChEs based on the Ellman's method, using various concentrations of the inhibitor [14]. […]

BChE = BChE (Equus caballus, UniProt P81908); assay: Kinetic study of BChE inhibition (Lineweaver-Burk); assay type: biochemical
Description: as §1

PC12 cells = assay: Neuroprotectivity against H2O2-induced cell death in PC12 cells (MTT); assay type: cell-based; details: 50 µM, positive control, H2O2 400 μM

T2 sequence (O42275 24-633): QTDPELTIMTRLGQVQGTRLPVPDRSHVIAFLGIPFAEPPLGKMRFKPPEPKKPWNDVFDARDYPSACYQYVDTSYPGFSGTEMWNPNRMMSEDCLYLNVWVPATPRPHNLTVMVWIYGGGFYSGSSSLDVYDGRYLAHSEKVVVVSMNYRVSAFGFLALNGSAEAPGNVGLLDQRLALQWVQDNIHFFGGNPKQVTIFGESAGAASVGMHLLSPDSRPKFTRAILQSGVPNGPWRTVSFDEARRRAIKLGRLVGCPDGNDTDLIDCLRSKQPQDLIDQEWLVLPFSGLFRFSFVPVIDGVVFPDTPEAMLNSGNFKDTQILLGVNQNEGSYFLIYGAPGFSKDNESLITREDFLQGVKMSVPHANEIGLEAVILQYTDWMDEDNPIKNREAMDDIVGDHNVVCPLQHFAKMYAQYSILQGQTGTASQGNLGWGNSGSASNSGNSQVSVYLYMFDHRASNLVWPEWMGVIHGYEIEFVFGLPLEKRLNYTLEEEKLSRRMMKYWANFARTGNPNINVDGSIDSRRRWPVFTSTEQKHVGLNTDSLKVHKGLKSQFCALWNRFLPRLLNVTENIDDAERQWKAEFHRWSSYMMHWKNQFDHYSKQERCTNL
T1 sequence (O42275 24-633): as above
Chain of BChE (P81908 whole entry): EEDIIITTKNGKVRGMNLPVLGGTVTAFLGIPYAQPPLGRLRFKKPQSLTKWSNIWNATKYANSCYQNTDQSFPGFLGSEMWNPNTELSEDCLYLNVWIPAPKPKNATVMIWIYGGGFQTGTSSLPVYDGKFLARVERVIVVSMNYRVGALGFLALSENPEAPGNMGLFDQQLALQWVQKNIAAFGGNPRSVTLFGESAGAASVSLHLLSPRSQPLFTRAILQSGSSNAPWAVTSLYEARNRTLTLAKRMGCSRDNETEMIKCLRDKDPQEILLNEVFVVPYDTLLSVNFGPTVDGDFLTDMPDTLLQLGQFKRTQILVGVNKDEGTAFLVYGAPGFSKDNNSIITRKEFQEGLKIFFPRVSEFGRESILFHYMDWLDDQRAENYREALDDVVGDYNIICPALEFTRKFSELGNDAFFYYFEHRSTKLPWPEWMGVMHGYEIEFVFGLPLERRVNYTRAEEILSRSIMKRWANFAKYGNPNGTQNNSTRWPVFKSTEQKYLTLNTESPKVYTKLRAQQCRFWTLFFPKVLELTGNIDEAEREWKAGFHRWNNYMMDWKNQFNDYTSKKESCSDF
Chain of butyrylcholinesterase (BChE) (P81908 whole entry): as above

Question: What does the source list for `O=C(CCCCCCCCc1ccccc1)c1c(O)cccc1O` [Compound 1, 1-(2,6-Dihydroxyphenyl)-9-phenylnonan-1-one]?
Answer: AChE inhibitory activity (in words) [1]: potent inhibitors; also recorded: strong inhibitors; IC50 [1]: 67.4 ± 1.52 µM; BChE inhibitory activity (in words) [2]: potent inhibitors; also recorded: strong inhibitors; IC50 [2]: 27.16 ± 0.06 µM

Question: Which “AChE inhibitory activity (in words)” value [1] does the source give for `O=C(CCCCCCCCc1ccc(O)c(O)c1)c1c(O)cccc1O` [Compound 2, 1-(2,6-Dihydroxyphenyl)-9-(3,4-dihydroxyphenyl)nonan-1-one] here?
Answer: potent inhibitors; also recorded: strong inhibitors

Question: And the IC50 [1]?
Answer: 25 ± 0.95 µM

Question: And the “BChE inhibitory activity (in words)” value [2]?
Answer: potent inhibitors; also recorded: strong inhibitors

Question: And the IC50 [2]?
Answer: 22.36 ± 0.03 µM

Question: And the “Mechanism of AChE inhibition” value (AChE; Lineweaver-Burk plot)?
Answer: non-competitive inhibition; also recorded: non-competitively inhibited

Question: And the Ki (AChE; Lineweaver-Burk, inhibitor 0, 28, 56, 112 μM)?
Answer: 25 µM

Question: And the “Mechanism of BChE inhibition” value (BChE; Lineweaver-Burk plot)?
Answer: non-competitive inhibition; also recorded: non-competitively inhibited

Question: And the Ki (BChE; Lineweaver-Burk, inhibitor 0, 14, 28, 56 μM)?
Answer: 22.4 µM

Question: How did the inhibition at 40 µg/mL [1] turn out when `COc1ccc(CC(C)C(C)Cc2ccc(O)c(O)c2)cc1OC` (stereo not drawn) [Compound 3, 4-(4-(3,4-Dimethoxyphenyl)-2,3-dimethylbutyl)benzene-1,2-diol] was run?
Answer: 0%

Question: What about the inhibition at 40 µg/mL [2] of the same molecule?
Answer: 47.4%

Question: `COc1cc([C@H]2O[C@@H](c3ccc(O)c(OC)c3)[C@H](C)[C@@H]2C)ccc1O` [Compound 4, 4,4'-((2R,3R,4S,5S)-3,4-Dimethyltetrahydrofuran-2,5-diyl)bis(2-methoxyphenol)] was tested. Which inhibition at 40 µg/mL [1] did it give?
Answer: 0%

Question: And the inhibition at 40 µg/mL [2]?
Answer: 45.8%

Question: Which inhibition at 40 µg/mL [1] does the source give for `COc1cc(CC(C)C(C)Cc2ccc3c(c2)OCO3)ccc1O` (stereo not drawn) [Compound 5, 4-(4-(Benzo[d][1,3]dioxol-5-yl)-2,3-dimethylbutyl)-2-methoxyphenol] here?
Answer: 12.8%

Question: And the inhibition at 40 µg/mL [2]?
Answer: 54.4%

Question: Which inhibition at 40 µg/mL [1] does the source give for `COc1cc(C(OC)C(C)C(C)Cc2ccc3c(c2)OCO3)ccc1O` (stereo not drawn) [Compound 6, 4-(4-(Benzo[d][1,3]dioxol-5-yl)-1-methoxy-2,3-dimethylbutyl)-2-methoxyphenol] here?
Answer: 0%

Question: And the inhibition at 40 µg/mL [2]?
Answer: 44%

Question: With `O=c1c(O)c(-c2ccc(O)c(O)c2)oc2cc(O)cc(O)c12` [quercetin] as the molecule, how does the “Neuroprotection (%) against H2O2-induced cell death” value (PC12 cells) read?
Answer: 72.79%
